Laboratory results reported in patent publication US20140037742A1, “ALGINATE MICROPARTICLES AND METHODS OF USING THE SAME” (priority 2012, published 2014).

Tested on: Staphylococcus epidermidis
Assay: Antimicrobial testing, zones of inhibition around saturated discs on agar plates
Assay type: cell-based
Conditions: positive control disc, all test plates
Procedure: Each disc was saturated with different test materials and zones of inhibition were measured after plates were incubated for 24 and 48 hours.
The synthesized microparticles were also tested for their antimicrobial activity against Staphylococcus epidermidis, a substitute for the pathogenic Staphylococcus aureus.

Compound: [H]/N=C(/N)N[C@H]1[C@H](O)[C@@H](O)[C@H](O[C@@H]2O[C@@H](C)[C@](O)(C=O)[C@H]2O[C@@H]2O[C@@H](CO)[C@H](O)[C@@H](O)[C@@H]2NC)[C@@H](N/C(N)=N\[H])[C@@H]1O [Streptomycin]
- zone of inhibition: large, consistent zone of inhibition
